Assay [1] concerns Rat1a-c-Myc cells. In words: Cell cycle profiles by propidium iodide flow cytometry. Particulars: 24 h, concentrations of FIG. 4. In kind it is cell-based, rat. The method, then: This assay was performed as previously described (Nesbit C. E., Grove L. E., Yin X. Y. and Prochownik E. V. (1998), Cell Growth Differ., 9:731–741; Nesbit C. E., Tersak J. M., Grove L. E., Drzal A., Choi H. and Prochownik E. V. (2000), Oncogene, 19:3200–3212; and Yin X. Y., Grove L., Datta N., Katula K., Long M. W. and Prochownik E. V. (2001), Cancer Res., 61:6487–6493). Cell cycle profiles were performed on propidium iodide-stained nuclei as previously described (Yin et al., (1999a)) using a Becton-Dickinson FACStar flow cytometer. A total of 2×10^4 cells were analyzed in triplicate for each point and quantitation was performed using single histogram statistics.
In contrast to c-Myc's promotion of cell cycle progression, its inhibition halts this process and results in an accumulation of cells in G0/G1 (Freytag S. O. (1988), Mol. Cell. Biol., 8:1614–1624; Prochownik et al., 1988 and deAlboran et al., 2001). Therefore, it was asked whether any of the above compounds could affect the cell cycle profiles of otherwise actively proliferating cells. Rat1a-c-Myc cells were plated at low concentrations and grown for 2 additional days until attaining approximately 30% confluency. The cells were then re-fed with fresh medium alone, medium containing DMSO only, or medium containing each of the Myc-Max-specific compounds. After 24 h, cells were harvested and cell cycle profiles were generated by flow cytometry following propidium iodide staining (Yin et al., 2001). […] In contrast, all of the compounds tested caused significant increases in the fraction of the G0/G1 population.
In general terms: In flow cytometry, cells or beads pass a laser one at a time.

In assay [2] the test system is Rat1a-c-Myc cells. As to the kind of experiment: In vivo tumor growth of pre-treated Rat1a-c-Myc cells in nude mice. Particulars: cells exposed 3 days to compound, then inoculated subcutaneously; no further compound. The method, then: All growth curves were performed in 12-well tissue culture plates as previously described (Yin et al., (1999b)). Rat1a-neo, Rat1a-c-Myc, and TGR-1 fibroblasts were seeded at an initial density of 2×10^3 cells/well whereas HO15.19 c-Myc KO cells were seeded at 5×10^3 cells/well. The following day, each compound, or DMSO vehicle alone, was added to the indicated final concentrations. Fresh medium and compound were added every 3–4 days. Cells were trypsinized and manually counted at the indicated times. […] For in vivo assays, Rat1a-c-Myc cells were grown to approximately 50% confluency. Fresh medium plus the indicated compounds, or DMSO vehicle alone, were then added to cells for an additional 3 days. At the end of this time, none of the cultures contained fewer than […] apoptotic cells as determined by trypan blue staining and TUNEL assays. The cells were then washed twice in PBS, trypsinized and resuspended in a minimal volume of fresh medium containing the same concentration of compound. In total, 2×10^7 cells were then inoculated subcutaneously into the flanks of nude mice (five animals per group) and no additional compound was administered for the duration of the experiment. Tumor growth was monitored weekly and the average tumor volume ([…].) was calculated as previously described (Yin X. Y., Grove E., Rogulski K. and Prochownik E. V., (2002), J. Biol. Chem., 277:19998–20010).
Rat1a-c-Myc cells form rapidly growing tumors in nude mice (Yin et al., 1999b). […] Rat1a-c-Myc cells were therefore exposed to the indicated Myc-Max-specific compounds for 3 days at the concentrations shown in FIG. 4. […] These cells were then inoculated into nude mice and monitored for tumor formation. Rat1a-c-Myc cells that had been incubated for 3 days in DMSO vehicle only served as a positive control.
Rat1a-c-Myc cells were exposed to the indicated Myc-Max-specific compounds for 3 days at the concentrations shown in FIG. 4, and then inoculated subcutaneously into the flanks of nude mice (five animals per group). Based on trypan blue staining, >95% of the inoculated cells were viable at the time of inoculation. Tumor growth was monitored and recorded weekly. Each point indicates the average tumor volume among the groups ±1 s.e.

Turning to `O=[N+]([O-])c1ccc(CCNC2CC3CCC2C3)cc1` (stereo not shown) [#10009, bicyclo[2.2.1]hept-2-yl-[2-(4-nitro-phenyl)-ethyl]-amine], in the assay with Rat1a-c-Myc cells [1], the “% of cells in G0/G1” value is 66.3%, the “% of cells in G2/M” value worked out at 10.6% and the “% of cells in S” value was determined as 23.1%. For the same compound, the “inhibition of in vivo tumor growth” value with Rat1a-c-Myc cells [2] is recorded as “inhibition of in vivo tumor growth”.
Turning to `CCCOc1ccc(N2C(=O)CC(N3CCC(C(=O)O)CC3)C2=O)cc1` (stereo not shown) [#10031, 1-[2,5-dioxo-1-(4-propoxy-phenyl)-pyrrolidin-3-yl]-piperidine-4-carboxylic acid], in the assay with Rat1a-c-Myc cells [1], the “% of cells in G0/G1” value was determined as 60.9%, the “% of cells in G2/M” value came to 5.2% and the “% of cells in S” value stood at 33.9%.
In the case of `Cc1ccc2c(c1)C(=NNc1nc(C)c(C(=O)Nc3cccc([N+](=O)[O-])c3)s1)CC(c1ccccc1)O2` (stereo not shown) [#10050, 4-methyl-2-[N′-(6-methyl-2-phenyl-chroman-4-ylidene)-hydrazino]-thiazole-5-carboxylic acid (3-nitrophenyl)-amide], in the assay on Rat1a-c-Myc cells [1], the “% of cells in G0/G1” value came to 58.7%, the “% of cells in G2/M” value is listed as 11.7% and the “% of cells in S” value stood at 29.6%. Moreover, the “inhibition of in vivo tumor growth” value with Rat1a-c-Myc cells [2] is “inhibition of in vivo tumor growth”.
As to `CCc1ccc(C=C2SC(=S)NC2=O)cc1` [#10058, 5-(4-ethyl-benzylidene)-2-thioxothiazolidin-4-one], in the assay on Rat1a-c-Myc cells [1], the “% of cells in G0/G1” value is 62.6%, the “% of cells in G2/M” value was found to be 13.7% and the “% of cells in S” value was determined as 23.7%. Further, the “inhibition of in vivo tumor growth” value with Rat1a-c-Myc cells [2] is “inhibition of in vivo tumor growth”.
In the same order, the values of `O=C1CSC(=O)N1CC(O)Cn1c2ccc(Cl)cc2c2cc(Cl)ccc21` (stereo not shown) [#10074A4, 3-[3-(3,6-dichloro-carbazol-9-yl)-2-hydroxy-propyl]-thiazolidine-2,4-dione] are 68.7%, 9.8%, 21.5% and “inhibition of in vivo tumor growth”.
Regarding `O=[N+]([O-])c1ccc(Nc2ccccc2-c2ccccc2)c2nonc12` [#10074G4, biphenyl-2-yl-(7-nitro-benzo[1,2,5]oxadiazol-4-yl)-amine], in the assay with Rat1a-c-Myc cells [1], the “% of cells in G0/G1” value is 53.9%, the “% of cells in G2/M” value worked out at 7.4% and the “% of cells in S” value came to 38.7%.
With `CCN(CC)C1CC(=O)N(c2cccc(Cl)c2)C1=O` (stereo not shown) [#10075, 1-(3-Chloro-phenyl)-3-diethylamino-pyrrolidine-2,5-dione], in the assay on Rat1a-c-Myc cells [1], the “% of cells in G0/G1” value is 65.1%, the “% of cells in G2/M” value is given as 10.7% and the “% of cells in S” value worked out at 24.2%.

Values taken from patent US7026343B2, “Pharmacologic inhibition of Myc function” (University of Pittsburgh - of the Commonwealth System of …, priority 2002, dated 2006).
